# Measured values reported in patent publication US20110086924A1, “Method of manufacturing an eutectic crystalline sugar alcohol” (B Food Science Co., Ltd., priority 2005, published 2011).
# Assay: Dissolving time in water (rate of dissolution)
# Format: physicochemical
# Details: 10 g in 100 ml water at 20° C.; particle size 150 μm or more but less than 350 μm
# Excerpt: Powder containing an eutectic crystalline sorbitol/maltitol prepared by the same way as that of Example 11 was classified into a part (crude particle part) having a particle size of 350 μm or more but less than 2 mm and a part (powdery product of 150 to 350 μm in particle size) having a particle size of 150 μm or more but less than 350 μm.
# In addition, as a control, powdery sorbitol (SORBITOL FP, manufactured by NIKKEN FINE CHEMICALS CO., LTD.), powdery maltitol (AMARTY MR, manufactured by TOWA KASEI CO., LTD.), and a mixture of powdery sorbitol and powdery maltitol (1:1), which were classified so as to have a particle size of 150 μm or more but less than 350 μm (powdery product of 150 to 350 μm in particle size), were prepared.
# Ten grams of each of them was poured into 100 ml of water at 20° C. and then subjected to the measurement of dissolving time. Consequently, the crude part of the powder containing an eutectic crystalline sorbitol/maltitol dissolved within 50 seconds, the powdery product of the powder containing an eutectic crystalline sorbitol/maltitol having a particle size of 150 to 350 μm dissolved within 18 seconds, the powdery sorbitol dissolved within 35 seconds, the powdery maltitol dissolved within 54 seconds, and the mixture of the powdery sorbitol and the powdery maltitol dissolved within 46 seconds.
row,Structure (SMILES),dissolving time
1,"OC[C@@H](O)[C@@H](O[C@H]1O[C@H](CO)[C@@H](O)[C@H](O)[C@H]1O)[C@H](O)[C@@H](O)CO [powdery maltitol, maltitol]",≤ 54 s
2,"OC[C@@H](O)[C@@H](O)[C@H](O)[C@@H](O)CO [powdery sorbitol, sorbitol]",≤ 35 s
